Source: US8673910B2, “Proteasome inhibitors for selectively inducing apoptosis in cancer cells” (H. Lee Moffitt Cancer Center and Research Institute, priority 2008, dated 2014)
Where “and” joins values, the source holds several entries; their conditions need not be identical. Equal values may be shown once.

Key:
[1] = system: MCF-7 breast cancer cells; test: MTT metabolism assay; assay type: cell-based, human; conditions: Homo sapiens, MCF7, 72 h, MCF-7, 72 h (Table 6); read-out: IC50 for cell viability measured by MTT assay in MCF-7 human breast cancer cells
Experimental: Cells were plated in 96-well plates in 100 μl medium and allowed to attach overnight. […] Media was aspirated after 24 or 72 hours and replaced with 100 μl complete media containing 1 mg/ml MTT and incubated for three hours at 37° C. in 5% CO2 humidified incubator. Media was then aspirated and DMSO was added. Cells were incubated for 10 min at room temperature while shaking, and the absorbance was determined at 540 nm using a μQuant spectrophotometric plate reader (Bio-TEK, Winooski, Vt.).
Cells were plated in 96-well plates in 100 μl medium and allowed to attach overnight. Cells were then incubated for 72 h with varying concentrations of PI-083, YG1-080, YG1-075, HL2-090-2, HL2-090-4, HL2-090-6, and HL2-090-9 or vehicle control (DMSO). Media was aspirated and replaced with 100 μl complete media containing 1 mg/ml MTT and incubated for three hours at 37° C. in 5% CO2 humidified incubator. Media was then aspirated and DMSO was added. Cells were incubated for 10 min at room temperature while shaking, and the absorbance was determined at 540 nm using a μQuant spectrophotometric plate reader (Bio-TEK, Winooski, Vt.).

[2] = molecular target: T1, CT-L activity of the proteasome in MCF-7 human breast cancer cells (Homo sapiens, UniProt P20618+P28074); test: Proteolytic activity in cell lysates of treated intact MCF-7 cells; assay type: cell-based; conditions: intact cells treated 16 h, CT-L measured in cell lysates; two determinations where two values
T1 construct: endogenous in cells; host or cells: MCF-7
Experimental: Human MCF-7 breast cancer cells were cultured in DMEM medium containing 10% fetal calf serum (FCS) and 100 units/ml of penicillin and 100 μg/ml of streptomycin. Cells were maintained at 37° C. in a humidified incubator in an atmosphere of 5% CO2. Cells were treated with different concentrations of PI-083, YG1-080, YG1-075, HL2-090-2, HL2-090-4, HL2-090-6, and HL2-090-9 or vehicle control (DMSO) for 16 h.
Intact cells were treated with compounds and lysates prepared as described above. Cell lysates (5 μg) was incubated with 20 μM Suc-Leu-Leu-Val-Tyr-AMC for the CT-L activity for 1 h at 37° C. in 100 μl of assay buffer (50 mM Tris-HCl, pH 7.6). After incubation, production of hydrolyzed 7-amido-4-methyl-coumarin (AMC) groups was measured using a WALLAC Victor^2 1420 Multilabel Counter with an excitation filter of 355 nm and an emission filter of 460 nm (Perkin Elmer Life Sciences, Turku, Finland).

[3] = molecular target: T2, chymotrypsin-like (CT-L) activity of purified 20S rabbit proteasome (Oryctolagus cuniculus, UniProt G1T4Q9); test: Proteolytic activity of purified 20S proteasome, fluorogenic substrate Suc-Leu-Leu-Val-Tyr-AMC; assay type: biochemical; conditions: purified rabbit 20S proteasome
T2 sequence (G1T4Q9 1-263): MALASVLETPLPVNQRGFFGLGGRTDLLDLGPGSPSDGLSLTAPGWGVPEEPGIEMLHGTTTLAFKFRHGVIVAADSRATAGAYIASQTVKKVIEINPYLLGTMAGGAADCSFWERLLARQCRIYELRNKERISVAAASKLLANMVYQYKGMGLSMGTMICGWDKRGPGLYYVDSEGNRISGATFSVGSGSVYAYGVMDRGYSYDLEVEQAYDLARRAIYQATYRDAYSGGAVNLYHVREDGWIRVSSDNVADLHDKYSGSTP
Experimental: The inhibitory activity of the compounds was calculated based on vehicle control). This technique monitors the hydrolytic release of a coumarin species from a synthetic peptide substrate.
The assay was conducted by using a fluorogenic peptide as substrate to test synthesized compounds for inhibitory activity against the chymotrypsin-like activity of the purified rabbit 20S proteasome. Briefly, 70 ng of purified 20S proteasome was incubated with 20 μM Suc-Leu-Leu-Val-Tyr-AMC for 1 hour at 37° C. in 100 μl of assay buffer (50 mM Tris-HCl, pH 7.6) with or without inhibitors. After incubation, production of hydrolyzed 7-amido-4-methyl-coumarin (AMC) was measured using a WALLAC Victor2 1420 Multilabel Counter with an excitation filter of 355 nm and an emission filter of 460 nm (Perkin Elmer Life Sciences, Turku, Finland). The inhibitory activity of the compounds was calculated based on vehicle control.

NS(=O)(=O)c1ccc(NC2=C(Cl)C(=O)c3ccccc3C2=O)cc1 [Compound 2t, 4-(3-chloro-1,4-dioxo-1,4-dihydronaphthalen-2-ylamino)benzenesulfonamide]
IC50 [1]: 2.41 ± 0.19 µM | melting point: > 300 °C | IC50 [2]: 5.1 µM and 4.7 µM | IC50 ([3]; PI-083 derivatives (Table 7, naphthoquinone library), read-out: IC50 (μM) Chymotrypsin-like activity): 1.1 µM | proteasome (chymotrypsin-like) inhibitory activity, in words [3]: equally as active as PI-083
